Results as given in patent US11779582B2, “Composition for preventing or treating metastatic ovarian cancer, endometrial cancer or breast cancer” (LEMONEX INC., priority 2017, dated 2023).

How the values were obtained:
Type in all cases: cell-based
[1] = tested on: monolayer cultured SKOV3ip1 ovarian cancer cells; assay: crystal violet cell viability, 2D monolayer culture
Description: 2D monolayer culture was implemented in the following manner: cells were cultured at 37° C., 5% CO2 humidified atmosphere using RPMI 1640 medium (Corning, NY, USA) supplemented with 10% fetal bovine serum (Gibco, NY, USA) and 10 U/ml penicillin/streptomycin.
Crystal violet staining was implemented to determine the cell viability in the monolayer cultured cell model and sphere cultured cell model. In order to implement the crystal violet staining in the monolayer culture model, SKOV3ip1 cells (5×10^4) were dispensed in commercial 24-well plates and incubated overnight. Thereafter, the drug was dispensed with a desired concentration for experiment into each well, followed by further incubation for 72 hours. 300 μl of 0.2% crystal violet solution was added to each well, followed by further incubation for 20 minutes while gently stirring the same. The stained cells were washed with distilled water until a clean background is observed. For assessment using a colorimeter, the crystal violet dye was extracted with 1% SDS/PBS and absorbance was measured at 570 nm wavelength by EMax PLUS microplate reader (Molecular Device, USA).
(§1) The monolayer cultured or sphere cultured SKOV3ip1 cells were treated with the tyrosine kinase inhibitor and paclitaxel for 72 hours, the cell viability was determined by the crystal violet colorimeter, and results thereof are shown in FIG. 3.

[2] = tested on: sphere cultured SKOV3ip1 ovarian cancer cells; assay: crystal violet cell viability, 3D sphere culture
Description: For 3D sphere culture, SKOV3ip1 cells (1×10^6) were dispensed on ultra-low adherent 6-well plate (Corning NY, USA), and then, cultured in 5% CO2 incubator using RPMI 1640 medium supplemented with 10% fetal bovine serum (Gibco, NY, USA) and 10 U/ml penicillin/streptomycin (Gibco).
In order to assess the cell viability in the sphere cultured cells, the SKOV3ip1 cells (5×10^4) were dispensed on the super-low adherent 24-well plate and cultured overnight. The cells were harvested from each well and the commercial 24-well plate was moved, followed by further incubation for 12 hours. The adhered and visualized cells were stained with 0.2% crystal violet solution for 20 minutes while gently agitating the same. The stained cells were washed with distilled water until a clean background is observed. For assessment using a colorimeter, the crystal violet dye was extracted with 1% SDS/PBS and absorbance was measured at 570 nm wavelength by EMax PLUS microplate reader (Molecular Device, USA).
as §1
Since the cell survival of the sphere cultured SKOV3ip1 cells is inhibited by BGJ398 treatment, whether such cell survival inhibition is intermediated through JAK/STAT3 signaling pathway was further examined. For this purpose, the selective JAK tyrosine kinase inhibitor AG490 was used at different concentrations of 3.125 to 50 μM in order to treat the monolayer cultured or sphere cultured SKOV3ip1 cells, and after 72 hours, whether it affects the cell viability and AKT and STAT3 activation was examined through crystal violet staining and immunostaining assay, and results thereof are shown in FIG. 7. Actin was used as a loading control group.
Under this ground, when administering BGJ398 in combination with paclitaxel typically used as the existing primary anticancer drug for ovarian cancer, whether paclitaxel resistance of the sphere cultured cells is overcome and improved was determined.

[3] = tested on: SKOV3-TR ovarian cancer cells; assay: crystal violet cell viability in paclitaxel-resistant cells
Description: SKOV3-TR cell line was offered from Sood AK in MD-Anderson Cancer Center (USA) and then used in the present experiments.
Paclitaxel resistance of each of SKOV3 and SKOV3-TR was determined by measuring the cell viability through crystal violet colorimetric assay. This experiment was implemented three times and a difference in results thereof was estimated by student's t-test.
(§2) According to the same procedures as described in the previous examples, each cell line was divided and cultured by 2D monolayer culture and 3D sphere culture, respectively. Then, a change due to administration of BGJ398 alone or in combination with paclitaxel was analyzed through morphological analysis and crystal violet staining assay.

[4] = tested on: HEC1B endometrial cancer cell line (2D monolayer culture); assay: crystal violet staining and morphology, paclitaxel in combination with BGJ398
Description: as §2, with “With respect to the cancer cell lines listed in Table 2 below, synergistic effects of paclitaxel and BGJ398 were further examined. According” for “According”, “analysis.” for “analysis and crystal violet staining assay.”

SKOV3ip1 = assay: crystal violet staining assay, cisplatin and BGJ398, 2D culture; details: SKOV3ip1, BGJ398 in combination with cisplatin (FIGS. 30 and 31)
Description: (§3) According to the same procedures as described in the previous examples, each cell line was subjected to 2D culture and a change thereof upon administration of cisplatin alone, BGJ398 alone or in combination with cisplatin was analyzed through crystal violet staining assay.

SKOV3-TR = assay: as above; details: BGJ398 in combination with cisplatin (FIGS. 30 and 31)
Description: as §3

[5] = tested on: SKOV3-TR ovarian cancer cells; assay: microscopic analysis of cell shape change due to cytotoxicity
Description: as §2
FIG. 20 illustrates a change in cell shape due to cytotoxicity under microscopic analysis, when paclitaxel alone, BGJ398 alone or in combination with paclitaxel was administered to SKOV3-TR ovarian cancer cells.

[6] = tested on: AKT phosphorylation and PARP cleavage in SKOV3-TR ovarian cancer cells; assay: PathScan Intracellular Signaling Array Kit; details: BGJ398 in combination with paclitaxel (FIG. 26)
[7] = tested on: Hs578T breast cancer cell line (3D sphere culture); assay: morphological analysis and crystal violet staining, 3D sphere culture
Description: (§4) With respect to the cancer cell lines listed in Table 1 below, synergistic effects of paclitaxel and BGJ398 were further examined. According to the same procedures as described in the previous examples, each cell line was divided and cultured by 2D monolayer culture and 3D sphere culture, respectively. Then, a change due to BGJ398 administration was analyzed through morphological analysis and crystal violet staining assay. All cell lines were purchased from ATCC and used in the present experiments, and detailed information thereof are shown in Table 3 below.
as §2, with “With respect to the cancer cell lines listed in Table 2 below, synergistic effects of paclitaxel and BGJ398 were further examined. According” for “According”, “analysis.” for “analysis and crystal violet staining assay.”

[8] = tested on: HEC1B endometrial cancer cell line (3D sphere culture); assay: as above
Description: as §4
as §2, with “With respect to the cancer cell lines listed in Table 2 below, synergistic effects of paclitaxel and BGJ398 were further examined. According” for “According”, “analysis.” for “analysis and crystal violet staining assay.”

CCN1CCN(c2ccc(Nc3cc(N(C)C(=O)Nc4c(Cl)c(OC)cc(OC)c4Cl)ncn3)cc2)CC1 [BGJ398, 3-(2,6-dichloro-3,5-dimethoxyphenyl)-1-[6-[4-(4-ethylpiperazin-1yl)anilino]pyrimidin-4-yl]-1-methylurea]
cell viability ([1]; monolayer cultured SKOV3ip1, 72 hours, different concentrations, crystal violet colorimeter (FIG. 3)): not effected | cytotoxicity ([1]; monolayer cultured SKOV3ip1, BGJ398 concentration increased to 5 μM): cytotoxicity was not revealed | paclitaxel sensitivity ([2]; 3D cultured SKOV3ip1, 1.25 and 5 μM BGJ398 with paclitaxel vs BGJ398 untreated group): increased paclitaxel sensitivity in a dose-dependent manner | cytotoxicity ([2]; 3D sphere cultured SKOV3ip1, 1 μM BGJ398, Day 3): showed cytotoxicity | cell viability ([2]; sphere cultured SKOV3ip1, 72 hours, different concentrations, crystal violet colorimeter (FIG. 3)): reduced the cell viability in a dose-dependent manner | cell apoptosis ([2]; sphere cultured SKOV3ip1, paclitaxel in combination with BGJ398 vs paclitaxel alone, 72 hours (FIG. 8)): higher cell apoptosis than the cells treated with paclitaxel alone | anticancer activity ([3]; BGJ398 at increasing concentration in combination with paclitaxel (FIG. 18)): higher anticancer activity with the increased concentration of BGJ398 | anticancer activity ([3]; BGJ398 in combination with paclitaxel at increasing concentration (FIG. 19)): higher anticancer activity with the increased concentration of paclitaxel | anticancer activity ([3]; BGJ398 in combination with paclitaxel vs paclitaxel alone (FIG. 16)): significantly improved | anticancer activity ([3]; BGJ398 in combination with paclitaxel, 2D monolayer culture and 3D sphere culture (FIG. 17)): more improved | effect on anticancer effects of paclitaxel ([4]; 2D monolayer HEC1B, BGJ398 in combination with paclitaxel (FIG. 10)): enhance anticancer effects of paclitaxel | cell apoptosis ([4]; HEC1B, BGJ398 in combination with paclitaxel (FIGS. 10 and 11)): cell apoptosis is further increased | anticancer activity (SKOV3ip1): anticancer activity is improved | anticancer activity (SKOV3-TR): anticancer activity is improved | cytotoxicity and morphological change ([5]; 2.5 μM BGJ398 in combination with 50 nM paclitaxel (FIG. 20)): a detachment phenomenon due to cytotoxicity and formation of cells in irregular shapes | cytotoxicity and morphological change ([5]; single agent: 2.5 μM BGJ398 or 50 nM paclitaxel (FIG. 20)): negligible cytotoxicity and no morphological change | cleaved PARP [6]: increasing the cleaved PARP | phosphorylation of AKT at serine 473 [6]: phosphoylation of AKT at serine 473 is reduced | cytotoxicity, cell sphere morphology ([7]; 3D sphere culture Hs578T, BGJ398 alone or in combination with paclitaxel): cell spheres are collapsed | cell apoptosis ([7]; sphere cultured Hs578T, BGJ398 alone): cell apoptosis can be found | cytotoxicity, cell sphere morphology ([8]; 3D sphere culture HEC1B, BGJ398 alone or in combination with paclitaxel): cell spheres are collapsed | cell apoptosis ([8]; sphere cultured HEC1B, BGJ398 alone): cell apoptosis can be found
